Reference: patent US5077296A, “Method for treating equine navicular disease with pentoxifylline, and composition containing pentoxifylline for administrating to horses” (priority 1987, dated 1991)

What was measured:
navicular disease [1] = experiment: Conventional navicular disease treatments (background discussion); assay type: in vivo; conditions: horse #18 (Molson), intermittent lameness over previous 5 months
Excerpt: To illustrate the advantages of pentoxifylline over existing navicular disease treatments, the following conventional treatments will be discussed herein.

navicular disease [2] = conditions: cited from earlier work

Structure (SMILES)	response to previous treatment (navicular disease [1])	side effects (navicular disease [2]; in vivo)	efficacy (navicular disease [2]; generic, unpredictable results)
CCCCC1C(=O)N(c2ccccc2)N(c2ccccc2)C1=O [phenylbutazone]	responded	risk of gastric and cecal ulcers and kidney damage	
CC(COc1ccccc1)NC(C)C(O)c1ccc(O)cc1 (stereo not drawn) [Isoxsuorine]			Approximately 50%
